This test has as its system Utrophin A promoter linked to a luciferase reporter gene. As to the kind of experiment: Luciferase reporter assay (murine H2K cells). Format: cell-based. To be noted: luciferase level relative to control, H2K/mdx/Utro A reporter cells, compound 10 μM final concentration; for activity at 10 µM: Mus musculus, H2K mdx, read-out: Activity. Summed up: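 Compound at 10 μM final was applied for 48 hrs to plated H2K mdx myoblasts (33° C, 10% CO2, interferon-containing medium) bearing a luciferase gene under the utrophin A promoter. Luminescence from lysed cells served as read-out.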
(In a reporter assay the amount or activity of a reporter protein is the signal.)

The text below walks through data of patent US8501713B2, “Drug combinations for the treatment of duchenne muscular dystrophy” (Summit Corporation PLC, priority 2007, dated 2013).

Molecules are shown by their SMILES.

For `CC(C)C(=O)Nc1ccc2nc(-c3cccc(Cl)c3Cl)oc2c1` [Example 354, N-(2-(2,3-dichlorophenyl)benzo[d]oxazol-6-yl)isobutyramide], the activity at 10 µM fell in the range of 301 to 400%.

`CC(C)C(=O)Nc1ccc2oc(-c3ccc(OC(F)(F)F)cc3)nc2c1` [Example 355, N-(2-(4-(trifluoromethoxy)phenyl)benzo[d]oxazol-5-yl)isobutyramide]: the activity at 10 µM was less than 200%. Still for that read-out and setting: the result for `Nc1ccc(-c2nc3cc(-c4ccc(Cl)cc4)ccc3o2)cc1` [Example 356, 4-(5-(4-chlorophenyl)benzo[d]oxazol-2-yl)aniline] reads less than 200%; that for `O=[N+]([O-])c1ccc2oc(N3CCOCC3)nc2c1` [Example 357, 2-morpholino-5-nitrobenzo[d]oxazole], less than 200%; that for `CC(=O)Nc1ccc(-c2ccc3oc(-c4ccc(Cl)cc4)nc3c2)cn1` [Example 358, N-(5-(2-(4-chlorophenyl)benzo[d]oxazol-5-yl)pyridin-2-yl)acetamide], less than 200%. Still for that read-out and setting: to `CC(=O)Nc1ccc(-c2nc3cc(Br)ccc3o2)cc1` [Example 359, N-(4-(5-bromobenzo[d]oxazol-2-yl)phenyl)acetamide] belongs greater than 401%; to `Nc1ccc2oc(N3CCOCC3)nc2c1` [Example 360, 2-morpholinobenzo[d]oxazol-5-amine], less than 200%. Consider `Clc1ccc(-c2nc3cc4c(cc3o2)OCO4)cc1Cl` [Example 361, 2-(3,4-chlorophenyl)-5,6-methylenedioxybenzoxazole], for which the Activity result is listed as “+ (Up to 200% relative to control)”. Consider `O=C(Nc1ccc2oc(-c3ccc(Cl)cc3)nc2c1)[C@@H]1CCCN1` [Example 362, (S)-N-(2-(4-chlorophenyl)benzo[d]oxazol-5-yl)pyrrolidine-2-carboxamide], for which the activity at 10 µM was 201 to 300%. Same read-out and setting: the result for `O=C(CC(F)(F)F)Nc1ccc2oc(-c3cccc(Cl)c3Cl)nc2c1` [Example 363, N-(2-(2,3-dichlorophenyl)benzo[d]oxazol-5-yl)-3,3,3-trifluoropropanamide] reads greater than 401%.

As to `CC(C)C(=O)Nc1ccc2oc(C3CCCC3)nc2c1` [Example 364, N-(2-cyclopentylbenzo[d]oxazol-5-yl)isobutyramide], the activity at 10 µM was less than 200%. With `CC(=O)Nc1ccc(-c2nc3cc(NC(C)=O)ccc3o2)cc1` [Example 365, N-(4-(5-acetamidobenzo[d]oxazol-2-yl)phenyl)acetamide], the activity at 10 µM is less than 200%. On the same count and under the same terms, to `O=[N+]([O-])c1ccc2oc(-c3ccco3)nc2c1` [Example 366, 2-(furan-2-yl)-5-nitrobenzo[d]oxazole] belongs less than 200%; to `CC(=O)Nc1ccc(-c2ccc3[nH]c(-c4ccc(Cl)cc4)cc3c2)cc1` [Example 367, N-(4-(2-(4-chlorophenyl)-1H-indol-5-yl)phenyl)acetamide], less than 200%.

With `CC(C)C(=O)Nc1ccc2oc(-c3cccc(C(F)(F)F)c3Cl)nc2c1` [Example 368, N-(2-(2-chloro-3-(trifluoromethyl)phenyl)benzo[d]oxazol-5-yl)isobutyramide], the activity at 10 µM was less than 200%. On to `Nc1ccc2nc(-c3ccc(Cl)c(Cl)c3)oc2c1` [Example 369, 2-(3,4-dichlorophenyl)benzo[d]oxazol-6-amine], for which the activity at 10 µM is greater than 401%. The same measure, in the same setting: to `CC(C)C(=O)Nc1ccc2nc(-c3ccc(Cl)c(Cl)c3)oc2c1` [Example 370, N-(2-(3,4-dichlorophenyl)benzo[d]oxazol-6-yl)isobutyramide] belongs greater than 401%; to `O=[N+]([O-])c1cc2oc(-c3ccc4c(c3)OCO4)nc2cc1Cl` [Example 371, 2-(benzo[d][1,3]dioxol-5-yl)-5-chloro-6-nitrobenzo[d]oxazole], 301 to 400%; to `CC(=O)Nc1ccc(-c2nc3cc(-c4ccc(Cl)cc4)ccc3o2)cc1` [Example 372, N-(4-(5-(4-chlorophenyl)benzo[d]oxazol-2-yl)phenyl)acetamide], less than 200%. With `CC(=O)Nc1ccc2oc(-c3ccc4ccccc4c3)nc2c1` [Example 373, N-(2-(naphthalen-2-yl)benzo[d]oxazol-5-yl)acetamide], the activity at 10 µM is greater than 401%. As to `CC(=O)Nc1ccc(-c2nc3cc(NC(=O)C(C)C)ccc3o2)cc1` [Example 374, N-(2-(4-acetamidophenyl)benzo[d]oxazol-5-yl)isobutyramide], the activity at 10 µM is less than 200%. The same measure, in the same setting: the result for `CC(C)C(=O)Nc1ccc2cc(-c3ccccc3)[nH]c2c1` [Example 375, N-(2-phenyl-1H-indol-6-yl)isobutyramide] reads less than 200%; that for `O=C(Nc1ccc2oc(-c3cccc(Cl)c3Cl)nc2c1)c1cccc(Cl)c1Cl` [Example 376, 2,3-dichloro-N-(2-(2,3-dichlorophenyl)benzo[d]oxazol-5-yl)benzamide], less than 200%; that for `CN[C@@H](C)C(=O)Nc1ccc2oc(-c3ccc(Cl)cc3)nc2c1` [Example 377, (S)-N-(2-(4-chlorophenyl)benzo[d]oxazol-5-yl)-2-(methylamino)propanamide], 301 to 400%. Still for that read-out and setting: the result for `CC(C)C(=O)Nc1ccc2ccn(C)c2c1` [Example 378, N-(1-methyl-1H-indol-6-yl)isobutyramide] reads less than 200%.

`O=[N+]([O-])c1ccc2oc(SCc3ccc(Cl)cc3)nc2c1` [Example 379, 2-(4-chlorobenzylthio)-5-nitrobenzo[d]oxazole]: the activity at 10 µM was less than 200%. As to `Nc1ccc2oc(SCc3ccc(Cl)cc3)nc2c1` [Example 380, 2-(4-chlorobenzylthio)benzo[d]oxazol-5-amine], the activity at 10 µM was less than 200%. Regarding `Nc1ccc2oc(NCc3ccc(Cl)cc3)nc2c1` [Example 381, N2-(4-chlorobenzyl)benzo[d]oxazole-2,5-diamine], the activity at 10 µM is less than 200%.

Turning to `Cc1ccc(CSc2nc3cc([N+](=O)[O-])ccc3o2)cc1` [Example 382, 2-(4-methylbenzylthio)-5-nitrobenzo[d]oxazole], the activity at 10 µM is less than 200%. On to `CC(C)C(=O)Nc1ccc2oc(SCc3ccc(Cl)cc3)nc2c1` [Example 383, N-(2-(4-chlorobenzylthio)benzo[d]oxazol-5-yl)isobutyramide], for which the activity at 10 µM was less than 200%. Same read-out and setting: to `CC(C)C(=O)Nc1ccc2oc(-c3ccc4ccccc4c3)nc2c1` [Example 384, N-(2-(naphthalen-2-yl)benzo[d]oxazol-5-yl)isobutyramide] belongs 301 to 400%. Take `O=C(Nc1ccc2oc(-c3ccc4ccccc4c3)nc2c1)c1cccs1` [Example 385, N-(2-(naphthalen-2-yl)benzo[d]oxazol-5-yl)thiophene-2-carboxamide]: the activity at 10 µM is less than 200%. Still for that read-out and setting: the result for `CCOC(=O)Nc1ccc2oc(-c3ccc(Cl)cc3)nc2c1` [Example 386, ethyl 2-(4-chlorophenyl)benzo[d]oxazol-5-ylcarbamate] reads less than 200%.

`CC(C)C(=O)Nc1ccc2ccn(Cc3ccccc3)c2c1` [Example 387, N-(1-benzyl-1H-indol-6-yl)isobutyramide]: the activity at 10 µM is less than 200%. The same measure, in the same setting: to `O=[N+]([O-])c1ccc2oc(-c3cccs3)nc2c1` [Example 388, 5-nitro-2-(thiophen-2-yl)benzo[d]oxazole] belongs less than 200%. On the same count and under the same terms, to `CC(C)C(=O)Nc1ccc2cc(-c3ccccc3)n(C)c2c1` [Example 389, N-(1-methyl-2-phenyl-1H-indol-6-yl)isobutyramide] belongs less than 200%; to `CCS(=O)(=O)c1ccc2oc(-c3cccc(Cl)c3F)nc2c1` [Example 391, 2-(3-chloro-2-fluorophenyl)-5-(ethylsulfonyl)benzo[d]oxazole], 201 to 300%. Same read-out and setting: the result for `CCS(=O)(=O)c1ccc2oc(C3CCCCC3)nc2c1` [Example 392, 2-cyclohexyl-5-(ethylsulfonyl)benzo[d]oxazole] reads less than 200%. As for `CCS(=O)(=O)c1ccc2oc(-c3ccc(Cl)cn3)nc2c1` [Example 393, 2-(5-chloropyridin-2-yl)-5-(ethylsulfonyl)benzo[d]oxazole], the activity at 10 µM lay in the range of 201 to 300%. Turning to `CCS(=O)(=O)c1ccc2oc(-c3ccc4c(c3)OCO4)nc2c1` [Example 394, 2-(benzo[d][1,3]dioxol-5-yl)-5-(ethylsulfonyl)benzo[d]oxazole], the activity at 10 µM was greater than 401%. With `CS(=O)(=O)c1ccc(-c2nc3cc(Cl)ccc3o2)cc1` [Example 395, 5-chloro-2-(4-(methylsulfonyl)phenyl)benzo[d]oxazole], the activity at 10 µM lay in the range of 201 to 300%.

Consider `CC(C)C(=O)Nc1ccc2oc(-c3ccccc3)cc2c1` [Example 396, N-(2-phenylbenzofuran-5-yl)isobutyramide], for which the activity at 10 µM was greater than 401%. `Nc1cc2oc(-c3ccc4c(c3)OCO4)nc2cc1Cl` [Example 397, 2-(benzo[d][1,3]dioxol-5-yl)-5-chlorobenzo[d]oxazol-6-amine]: the activity at 10 µM lay in the range of 301 to 400%.

For the compound `CC(C)C(=O)Nc1cc2oc(-c3ccc4c(c3)OCO4)nc2cc1Cl` [Example 398, N-(2-(benzo[d][1,3]dioxol-5-yl)-5-chlorobenzo[d]oxazol-6-yl)isobutyramide], the activity at 10 µM was less than 200%.

For `CSc1ccc2nc(-c3ccc(Cl)cc3)sc2c1` [Example 399, 2-(4-chlorophenyl)-6-(methylthio)benzo[d]thiazole], the activity at 10 µM is 301 to 400%.

Regarding `CS(=O)(=O)c1ccc2oc(-c3ccc(Cl)cc3)nc2c1` [Example 400, 2-(4-chlorophenyl)-5-(methylsulfonyl)benzo[d]oxazole], the activity at 10 µM is 201 to 300%.

For the compound `Nc1ccc2oc(-c3ccc(-c4ccccc4)cc3)nc2c1` [Example 401, 2-(biphenyl-4-yl)benzo[d]oxazol-5-amine], the activity at 10 µM was in the range of 301 to 400%.

For `Nc1ccc2oc(-c3ccc4ccccc4n3)nc2c1` [Example 402, 2-(quinolin-2-yl)benzo[d]oxazol-5-amine], the activity at 10 µM was 301 to 400%.

For `Nc1ccc2oc(-c3cnc4ccccc4c3)nc2c1` [Example 403, 2-(quinolin-3-yl)benzo[d]oxazol-5-amine], the activity at 10 µM was 301 to 400%.
